The target in this assay is human TGFβR1 (Homo sapiens (Human), UniProt P36897). As to the kind of experiment: TGFβR1 kinase activity assay (ADP-Glo method). It is filed as biochemical. Particulars: ATP 5 uM, TGFβR1tide substrate, 60 minutes at room temperature. The method, then: The principle of the activity assay was that TGFβR1 phosphorylates the substrate TGFβR1tide, consuming ATP in the process. […] The specific experimental steps were as follows. Compounds were diluted 4-fold in DMSO in a dilution plate, with the final starting concentration of the compounds being 10 μM, across 10 concentration gradient points. The compounds were then further diluted 50-fold into the kinase reaction buffer and incubated on a shaker for 20 minutes. Kinase was formulated with an enzyme reaction buffer. 2 μl kinase was added to each well of the reaction plate. 1 μl of the compound diluted in buffer was added to each well, and then the plate was sealed with a sealing membrane and centrifuged at 1000 g for 30 seconds, leaving it at room temperature for 10 minutes. Solutions of TGFβR1tide and ATP were prepared with the kinase reaction buffer, and 2 μL of the TGFβR1tide/ATP solution was added to the reaction plate. The plate was sealed with a sealing film and centrifuged at 1000 g for 30 seconds. It was allowed to react at room temperature for 60 minutes. Subsequently, 4 μL of ADP-Glo was transferred to a 384-well reaction plate and centrifuged at 1000 rpm/min for 1 minute, followed by incubation at 25° C. for 40 minutes. Then, 8 μL of Detection solution was transferred to the 384-well reaction plate and centrifuged at 1000 rpm/min for 1 minute, after which it was incubated at 25° C. for 40 minutes. The RLU (Relative Luminescence Unit) signal was read using a BMG microplate reader, which was used to characterize the degree of kinase activity.
Sequence of human TGFβR1 (P36897 34-503): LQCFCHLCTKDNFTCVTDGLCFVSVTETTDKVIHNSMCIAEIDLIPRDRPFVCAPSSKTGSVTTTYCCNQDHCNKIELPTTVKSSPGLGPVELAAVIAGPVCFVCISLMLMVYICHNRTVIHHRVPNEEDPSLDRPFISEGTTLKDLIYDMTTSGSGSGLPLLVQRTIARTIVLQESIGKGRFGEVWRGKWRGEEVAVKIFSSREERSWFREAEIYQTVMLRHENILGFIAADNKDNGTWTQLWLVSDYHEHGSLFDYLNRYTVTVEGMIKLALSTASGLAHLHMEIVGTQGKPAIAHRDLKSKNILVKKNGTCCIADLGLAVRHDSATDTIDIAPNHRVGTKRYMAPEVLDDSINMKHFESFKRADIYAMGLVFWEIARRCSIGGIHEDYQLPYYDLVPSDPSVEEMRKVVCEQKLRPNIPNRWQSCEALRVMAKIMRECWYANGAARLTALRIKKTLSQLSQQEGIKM
3.1 The inhibition rate was calculated as follows: inhibition rate of compound (% inh)=100%−(compound−positive control)/(negative control−positive control)*100%.
The IC50 (half inhibition concentration) of a compound was obtained using the following non-linear fitting equation, wherein data analysis was performed using Graphpad 7.0 software.
X: log value of compound concentration; and Y: inhibition rate (% inhibition)
For orientation: ADP-Glo turns the ADP formed in a reaction into a luminescent signal.

Take `Cc1cccc(-c2nn(Cc3ccc(F)cc3)cc2-c2ccnc(-c3nc4c([nH]3)CN(S(C)(=O)=O)C4)c2)n1` [Compound 50, 2-[4-(1-(4-Fluorobenzyl)-3-(6-methylpyridin-2-yl)-1H-pyrazol-4-yl)pyridin-2-yl]-5-(methylsulfonyl)-1,4,5,6-tetrahydropyrrolo[3,4-d]imidazole]: the IC50 was 2.2 nM.

`Cc1cccc(-c2nc3n(c2-c2ccnc(-c4nc5c([nH]4)CN(C(=O)C4CC(O)C4)C5)c2)CCC3)n1` (stereo not shown) [Compound 10, (3-Hydroxycyclobutyl)(2-(4-(2-(6-methylpyridin-2-yl)-6,7-dihydro-5H-pyrrolo[1,2-a]imidazol-3-yl)pyridin-2-yl)-4,6-dihydropyrrolo[3,4-d]imidazol-5(1H)-yl)ketone] yielded a 50% inhibitory concentration (IC50) of 2.2 nM.

Take `Cc1cccc(-c2nc3n(c2-c2ccnc(-c4nc5c([nH]4)CN(C)C5)c2)CCC3)n1` [Compound 3, 5-methyl-2-(4-(2-(6-methylpyridin-2-yl)-6,7-dihydro-5H-pyrrolo[1,2-a]imidazol-3-yl)pyridin-2-yl)-1,4,5,6-tetrahydropyrrolo[3,4-d]imidazole]: the IC50 is 7.4 nM.

`Cc1cccc(-c2nn(CC3CC3)cc2-c2ccnc(-c3nc4c([nH]3)CN(S(C)(=O)=O)C4)c2)n1` [Compound 47, 2-[4-(1-(Cyclopropylmethyl)-3-(6-methylpyridin-2-yl)-1H-pyrazol-4-yl)pyridin-2-yl]-5-(methylsulfonyl)-1,4,5,6-tetrahydropyrrolo[3,4-d]imidazole] came in with an IC50 of 3.4 nM.

The molecule `Cc1cccc(-c2nc3n(c2-c2ccnc(-c4nc5c([nH]4)CNCC5)c2)CCC3)n1` [Compound 75, 2-(4-(2-(6-Methylpyridin-2-yl)-6,7-dihydro-5H-pyrrolo[1,2-a]imidazol-3-yl)pyridin-2-yl)-4,5,6,7-tetrahydro-3H-imidazolo[4,5-c]pyridine] returned an IC50 of 5.6 nM. This IC50 is about 1.6-fold higher than that of the molecule before.

`Cc1cccc(-c2nc3n(c2-c2ccnc(-c4nc5c([nH]4)CN(C(=O)N4CCOCC4)C5)c2)CCC3)n1` [Compound 14] registered an IC50 of 7.9 nM.

Molecule `Cc1cccc(-c2nn(C(C)C)cc2-c2ccnc(-c3nc4c([nH]3)CN(S(C)(=O)=O)C4)c2)n1` [Compound 46, 2-[4-(1-Isopropyl-3-(6-methylpyridin-2-yl)-1H-pyrazol-4-yl)pyridin-2-yl]-5-(methylsulfonyl)-1,4,5,6-tetrahydropyrrolo[3,4-d]imidazole] gave an IC50 of 1.7 nM.

`Cc1cccc(-c2nn3c(c2-c2ccnc(-c4nc5c([nH]4)CN(C(=O)N(C)C)C5)c2)CCC3)n1` [Compound 67, N,N-Dimethyl-2-(4-(2-(6-methylpyridin-2-yl)-5,6-dihydro-4H-pyrrolo[1,2-b]pyrazol-3-yl)pyridin-2-yl)-4,6-dihydropyrrolo[3,4-d]imidazole-5(1H)-carboxamide] registered an IC50 of 2 nM.

On to `Cc1cccc(-c2nc3n(c2-c2ccnc(-c4nc5c([nH]4)CNC5)c2)CCC3)n1` [Compound 2, 2-(4-(2-(6-methylpyridin-2-yl)-6,7-dihydro-5H-pyrrolo[1,2-a]imidazol-3-yl)pyridin-2-yl)-1,4,5,6-tetrahydropyrrolo[3,4-d]imidazole], for which inhibition was half-maximal at 23 nM (IC50).

Regarding `Cc1cccc(-c2n[nH]cc2-c2ccnc(-c3nc4c([nH]3)CN(C(=O)N(C)C)C4)c2)n1` [Compound 59, N,N-Dimethyl-2-(4-(3-(6-methylpyridin-2-yl)-1H-pyrazol-4-yl)pyridin-2-yl)-4,6-dihydro pyrrolo[3,4-d]imidazol-5(1H)-carboxamide], the IC50 was 9.2 nM.

As for `Cc1cccc(-c2nc3n(c2-c2ccnc(-c4nc5c([nH]4)CN(C(=O)N4CCN(C)CC4)C5)c2)CCC3)n1` [Compound 4, (4-methylpiperazin-1-yl)(2-(4-(2-(6-methylpyridin-2-yl)-6,7-dihydro-5H-pyrrolo[1,2-a]imidazol-3-yl)pyridin-2-yl)-4,6-dihydropyrrolo[3,4-d]imidazol-5(1H)-yl)ketone], 3.8 nM corresponded to half-maximal inhibition (IC50).

`Cc1cccc(-c2n[nH]cc2-c2ccnc(-c3nc4c([nH]3)CNCC4)c2)n1` [Compound 76] yielded an IC50 of 13 nM. Compared with the last molecule, the IC50 is about 3.4-fold higher.

Consider `Cc1cccc(-c2nn(C)cc2-c2ccnc(-c3nc4c([nH]3)CN(S(C)(=O)=O)C4)c2)n1` [Compound 39, 2-[4-(1-Methyl-3-(6-methylpyridin-2-yl)-1H-pyrazol-4-yl)pyridin-2-yl]-5-(methylsulfonyl)-1,4,5,6-tetrahydropyrrolo[3,4-d]imidazole], for which half-maximal inhibition (IC50) required 2 nM. Against the preceding molecule, the IC50 is about 6.5-fold lower.

With `Cc1cccc(-c2nn3c(c2-c2ccnc(-c4nc5c([nH]4)CN(S(=O)(=O)C(C)C)C5)c2)CCC3)n1` [Compound 69, 5-(Isopropylsulfonyl)-2-(4-(2-(6-methylpyridin-2-yl)-5,6-dihydro-4H-pyrrolo[1,2-b]pyrazol-3-yl)pyridin-2-yl)-1,4,5,6-tetrahydropyrrolo[3,4-d]imidazole], 1.3 nM corresponded to half-maximal inhibition (IC50).

For the molecule `CCS(=O)(=O)N1Cc2nc(-c3cc(-c4cn(C)nc4-c4cccc(C)n4)ccn3)[nH]c2C1` [Compound 52, 5-(Ethylsulfonyl)-2-[4-(1-methyl-3-(6-methylpyridin-2-yl)-1H-pyrazol-4-yl)pyridin-2-yl]-1,4,5,6-tetrahydropyrrolo[3,4-d]imidazole], the midpoint of inhibition, the IC50, lay at 2.1 nM.

In the case of `Cc1cccc(-c2nc3n(c2-c2ccnc(-c4nc5c([nH]4)CN(CC4CC(O)C4)C5)c2)CCC3)n1` (stereo not shown) [Compound 26, 3-((2-(4-(2-(6-Methylpyridin-2-yl)-6,7-dihydro-5H-pyrrolo[1,2-a]imidazol-3-yl)pyridin-2-yl)-4,6-dihydropyrrolo[3,4-d]imidazol-5(1H)-yl)methyl)cyclobutanol], the IC50 worked out at 4.1 nM. Against the preceding molecule, the IC50 is about 2-fold higher.

For `Cc1cccc(-c2nc3n(c2-c2ccnc(-c4nc5c([nH]4)CN(C4CCC(O)CC4)C5)c2)CCC3)n1` (stereo not shown) [Compound 25, 4-(2-(4-(2-(6-Methylpyridin-2-yl)-6,7-dihydro-5H-pyrrolo[1,2-a]imidazol-3-yl)pyridin-2-yl)-4,6-dihydropyrrolo[3,4-d]imidazol-5(1H)-yl)cyclohexan-1-ol], the midpoint of inhibition, the IC50, lay at 25 nM.

`CCN(C)C(=O)N1Cc2nc(-c3cc(-c4c(-c5cccc(C)n5)nc5n4CCC5)ccn3)[nH]c2C1` [Compound 32, N-Ethyl-N-methyl-2-(4-(2-(6-methylpyridin-2-yl)-6,7-dihydro-5H-pyrrolo[1,2-a]imidazol-3-yl)pyridin-2-yl)-4,6-dihydropyrrolo[3,4-d]imidazol-5(1H)-carboxamide] came in with an IC50 of 2.3 nM. Compared with the last molecule, the IC50 is about 11-fold lower.

With `Cc1cccc(-c2nn(Cc3ccccc3F)cc2-c2ccnc(-c3nc4c([nH]3)CN(S(C)(=O)=O)C4)c2)n1` [Compound 51, 2-[4-(1-(2-Fluorobenzyl)-3-(6-methylpyridin-2-yl)-1H-pyrazol-4-yl)pyridin-2-yl]-5-(methylsulfonyl)-1,4,5,6-tetrahydropyrrolo[3,4-d]imidazole], the IC50 came to 5.6 nM.

As for `Cc1cccc(-c2nn(CC3CC(O)C3)cc2-c2ccnc(-c3nc4c([nH]3)CN(S(C)(=O)=O)C4)c2)n1` (stereo not shown) [Compound 49, 3-((3-(6-Methylpyridin-2-yl)-4-(2-(5-(methylsulfonyl)-1,4,5,6-tetrahydropyrrolo[3,4-d]imidazol-2-yl)pyridin-4-yl)-1H-pyrazol-1-yl)methyl)cyclobutanol], it took 3 nM to reach half-maximal inhibition (IC50).

Molecule `Cc1cccc(-c2nn(C)cc2-c2ccnc(-c3nc4c([nH]3)CN(C(=O)C3CC(O)C3)C4)c2)n1` (stereo not shown) [Compound 42, (3-Hydroxycyclobutyl)(2-(4-(1-methyl-3-(6-methylpyridin-2-yl)-1H-pyrazol-4-yl)pyridin-2-yl)-4,6-dihydropyrrolo[3,4-d]imidazol-5(1H)-yl)ketone] came in with an IC50 of 27 nM. Against the preceding molecule, the IC50 is about 9-fold higher.

`Cc1cccc(-c2nc3n(c2-c2ccnc(-c4nc5c([nH]4)CN(C(=O)CC#N)C5)c2)CCC3)n1` [Compound 64, 3-(2-(4-(2-(6-Methylpyridin-2-yl)-6,7-dihydro-5H-pyrrolo[1,2-a]imidazol-3-yl)pyridin-2-yl)-4,6-dihydropyrrolo[3,4-d]imidazol-5(1H)-yl)-3-oxopropanenitrile] displayed an IC50 of 7.3 nM.

Regarding `Cc1cccc(-c2nn(C)cc2-c2ccnc(-c3nc4c([nH]3)CN(C(=O)N(C)C)C4)c2)n1` [Compound 58, N,N-Dimethyl-2-(4-(1-methyl-3-(6-methylpyridin-2-yl)-1H-pyrazol-4-yl)pyridin-2-yl)-4,6-dihydropyrrolo[3,4-d]imidazol-5(1H)-carboxamide], the IC50 worked out at 1.8 nM.

Regarding `Cc1cccc(-c2nc3n(c2-c2ccnc(-c4nc5c([nH]4)CN(C(=O)N(C)C)C5)c2)CCC3)n1` [Compound 29, N,N-Dimethyl-2-(4-(2-(6-methylpyridin-2-yl)-6,7-dihydro-5H-pyrrolo[1,2-a]imidazol-3-yl)pyridin-2-yl)-4,6-dihydropyrrolo[3,4-d]imidazol-5(1H)-carboxamide], half-maximal inhibition (IC50) was put at 0.18 nM.

In turn, `Cc1cccc(-c2nn(Cc3ccccc3)cc2-c2ccnc(-c3nc4c([nH]3)CN(S(C)(=O)=O)C4)c2)n1` [Compound 48, 2-[4-(1-Benzyl-3-(6-methylpyridin-2-yl)-1H-pyrazol-4-yl)pyridin-2-yl]-5-(methylsulfonyl)-1,4,5,6-tetrahydropyrrolo[3,4-d]imidazole] registered an IC50 of 1.6 nM.

As usually defined, the IC50 is the concentration needed to halve the response being measured. A lower IC50 goes with greater potency in that assay.

The values above are taken from patent US20250179094A1, “TGF-B INHIBITOR COMPOUND AND USE THEREOF” (Medinno Pharmaceutical Technology (Zhuhai) Co., Ltd., priority 2022, published 2025).
